Usually MIC50 stands for the lowest concentration that inhibits either 50% of growth or 50% of the strains tested, depending on the study. Low values mean greater potency, high ones weaker potency.

≈ marks a conversion by molar mass, not a printed value. Where two headings read alike, the source gives them in different places. Some results are limits rather than exact numbers.

This assay deals with Streptococcus faecalis. The assay is described as follows: standard microtiter assay, minimum inhibitory concentration. Type of assay: cell-based. The method, boiled down: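 Standard microtiter broth assays, with MIC reported in μg/ml and averaged over several strains per species. The CWI-785 complex was tested, in some cases as HCl salts. Some runs used no serum, 50% human serum or 50% mouse serum.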

[1] abbreviates: Table 4, Strep. faecalis (12 strains).

Molecule `CN[C@H](CC(C)C)C(=O)N[C@H]1C(=O)N[C@@H](CC(N)=O)C(=O)N[C@H]2C(=O)N[C@H]3C(=O)N[C@H](C(=O)N[C@H](C(=O)O)c4cc(O)cc(O)c4-c4cc3ccc4O)[C@H](O)c3ccc(c(Cl)c3)Oc3cc2cc(c3O[C@@H]2O[C@H](CO)[C@@H](O)[C@H](O)[C@H]2O[C@H]2C[C@](C)(N)[C@H](O)[C@H](C)O2)Oc2ccc(cc2Cl)[C@H]1O` [Vancomycin, vancomycin] returned an MIC50 (Enterococcus faecalis) of 0.4 µg/mL (≈ 0.276 µM). This molecule gave an MIC (Enterococcus faecalis, Table 5 organism 7 S. faecalis, 50% Hum. Serum) of 3.1 µg/mL (≈ 2.14 µM); an MIC (Enterococcus faecalis, Table 5 organism 7 S. faecalis, 50% Mse. Serum) of 6.3 µg/mL (≈ 4.35 µM); an MIC (Enterococcus faecalis, Table 5 organism 7 S. faecalis, No Serum) of 1.6 µg/mL (≈ 1.1 µM); an MIC (Enterococcus faecalis, Table 5 organism 8 S. faecalis, 50% Hum. Serum) of 3.1 µg/mL (≈ 2.14 µM); an MIC (Enterococcus faecalis, Table 5 organism 8 S. faecalis, 50% Mse. Serum) of 6.3 µg/mL (≈ 4.35 µM); an MIC (Enterococcus faecalis, Table 5 organism 8 S. faecalis, No Serum) of 1.6 µg/mL (≈ 1.1 µM). In addition, the MIC was 1.6 µg/mL (≈ 1.1 µM) (Enterococcus faecalis, read-out: minimum inhibitory concentration, Table 2 test organism 9, Streptococcus faecalis strain) and 1.6 µg/mL (≈ 1.1 µM) (Enterococcus faecalis, read-out: minimum inhibitory concentration, Table 2 test organism 10, Streptococcus faecalis strain). Besides, the MBC (Enterococcus faecalis, read-out: MBC50) was 50 µg/mL (≈ 34.5 µM). Moreover, the “MIC RANGE” value under setting [1] is 0.4 to 0.8 µg/mL.

Consider teicoplanin, for which the minimum inhibitory concentration reads like this: (Table 2 test organism 9, Streptococcus faecalis strain) under 0.1 µg/mL; (Table 2 test organism 10, Streptococcus faecalis strain) under 0.1 µg/mL. The MIC50 result under setting [1] is “<= 0.1 μg/ml”. Moreover, the “MIC RANGE” value under setting [1] is “<=0.1-0.2 μg/ml”. The molecule further returned an MBC50 (Table 4, Strep. faecalis MBC50) of 6.3 µg/mL. Further, the “MBC RANGE” value (Table 4, Strep. faecalis MBC50 column) was 1.6 to 25 µg/mL. For the same molecule, the MIC by setting is: (Table 5 organism 7 S. faecalis, 50% Hum. Serum) 6.3 µg/mL; (Table 5 organism 7 S. faecalis, 50% Mse. Serum) 1.6 µg/mL; (Table 5 organism 7 S. faecalis, No Serum) “<= 0.1 μg/ml”; (Table 5 organism 8 S. faecalis, 50% Hum. Serum) 6.3 µg/mL; (Table 5 organism 8 S. faecalis, 50% Mse. Serum) 3.1 µg/mL; (Table 5 organism 8 S. faecalis, No Serum) “<= 0.1 μg/ml”.

(Values after patent US4742045A, “Glycopeptide antibiotics” (SmithKline Beckman Corporation, priority 1986, dated 1988).)
